# Data as given in US11612586B2, “Indole regulation of antigen presenting cells” (THE TEXAS A&M UNIVERSITY SYSTEM, priority 2016, dated 2023).
# “Also recorded” adds a separate entry of the source.
# Key:
# TNF = TNF production in DC2.4 cell line, intracellular staining, flow cytometry; assay type: cell-based, murine
# Experimental: Intracellular staining was performed to assess TNF production.
# FIG. 8 illustrates that indole synergizes with TGF-β to inhibit TNF production in DCs. Flow cytometric analysis was performed on DC2.4 cells treated with indole or DMF control for 24 hours in the presence or absence of TGF-β (10 ng/ml). […] Shaded gray areas represent unstimulated samples. Representative histograms from one of three independent experiments.
# One important way that DCs shape local immune responses is through the production of cytokines. Cytokine production was addressed in indole-conditioned dendritic cells, first using the murine dendritic cell line, DC2.4. Cells pre-treated with physiologically relevant doses of indole produced less TNF upon stimulation with the bacterial surface component and TLR4 ligand, LPS. Production of TNF was reduced by 50% following treatment with 1 mM indole (FIG. 1). This response is biologically important as LPS serves as the prototypical endotoxin, present on the surface of virtually all gram-negative bacteria including gut-resident commensal strains.
# Thy1.2+CD4+ T cells = assay: In vivo T cell activation by conditioned, OVA-loaded BMDCs transferred to B6-Thy1.1 mice; design: species or system mouse; settings: mice receiving BMDCs conditioned with indole
# From the text: FIGS. 17A-17C graphically illustrate that indole-conditioned DCs induce lower T cell activation overall but a greater proportion of Tregs in spleen compared to control. Naïve CD4+CD25− T cells from OT-II (Thy1.2) mice and OVA323-339-loaded BMDCs conditioned with indole, RA, or DMF were transferred to B6-Thy1.1 mice. After 7 days, tissues were harvested and stained for flow cytometric analysis. Data includes total expansion of Thy1.2+CD4+ T cells (FIG. 17A), percentage of Foxp3+CD4+ T cells of expanded T cells (FIG. 17B), and MFI of Foxp3+CD4+ T cells of expanded T cells (FIG. 17C). n=4 mice/group.
# To address the functionality of indole DC-induced Tregs, an in vivo T cell activation system was employed. The pan T cell surface antigen, Thy1, has congenic alleles, Thy1.1 and Thy1.2, which can be used to differentiate donor and recipient T cells. Naïve CD4+CD25− T cells were purified from OT-II (Thy1.2) mice, then transferred them to recipient Thy1.1 mice. Indole-treated, OVA323-339 peptide-loaded BMDCs (Thy1.2) was subsequently transferred to the same recipient Thy1.1 mice. After five days, the recipient mice were sacrificed to assess activation of the transferred naïve T cells, which could only be activated by the transferred, peptide-loaded DCs and are identifiable by the Thy1.2 T cell surface antigen. Cellular populations from the spleen, mesenteric lymph nodes, and pooled distal lymph nodes (axial and inguinal), were examined limiting the analysis to CD4+ T cells bearing the Thy1.2 allele (donor-derived). Importantly, the DCs transferred without OVA peptide loading (negative control) induced virtually undetectable T cell activation. This confirms the specificity of the present model, ensuring that T cell activation in Thy1.2 T cells was solely due to interaction with our experimental BMDCs.
# Naïve CD4+CD25− T cells from spleens and lymph nodes of OT-II mice were isolated by column purification as described above and resuspended in sterile Hanks Balanced Saline Solution (HBSS). […]
# CCR9 = CCR9 induction on naïve T cells by conditioned DCs; assay type: cell-based, mouse
# Experimental: FIG. 18 graphically illustrates that indole-conditioned DCs induce CCR9 on naïve T cells upon activation. Naïve CD4+CD25− T cells from OT-II mice were co-cultured with OVA323-339 peptide-loaded BMDCs for 72 hours in the presence of RA as indicated. BMDCs were previously treated with indole, RA, or DMF from day 3. Following 3 days of co-culture, surface staining was performed for flow cytometric analysis.
# Based on the observation that indole induces gut homing markers on developing DCs, it was queried whether indole-conditioned DCs could also confer gut homing markers upon naïve CD4+ T cells. The antigen-specific T cell activation model was used to address this question, and a titration of RA was included as a positive control to induce CCR9. […] Just 10 nM of RA enabled indole-DC co-cultures to achieve over 50% of T cells expressing CCR9 which was similar to RA-DC positive controls, whereas DMF-DC co-cultures with the same concentration of RA added achieved only 10% of CCR9+ T cells.
# Naïve CD4+CD25− T cells of spleen and lymph nodes from OT-II mice were isolated by negative selection via column purification using the Naïve CD4+ T Cell Isolation Kit (Miltenyi Biotec). Naïve CD4+ T cells (>96% pure) were labeled with Cell Proliferation Dye efluor450 (eBioscience) following manufacturer's instructions then co-cultured with OVA peptide-loaded BMDCs at a ratio of 2:1 for 72 hours in a 96-well round-bottom tissue culture plate. BMDCs were previously treated with indole or RA from day 3. On day 7, DCs were washed extensively prior to being loaded with OVA323-339 peptide (10 ug/ml) for 1 hour at 37° C. BMDCs were then washed three times and plated with naïve CD4+ T cells. RA or TGFβ were added to co-cultures as indicated. Following 3 days of culture, cells were stained with antibodies to CD4, CCR9, and LPAM-1 (α4β7). Intracellular staining for Foxp3 was performed using a Foxp3 staining kit (eBioscience). The remaining CD4+ helper T cell lineages Th1, Th2, and Th17 were identified by their cytokine production. […]
compound,measurement,setting,value
"c1ccc2[nH]ccc2c1 [Indole, indole]",reduction of TNF production,"TNF; DC2.4, 1 mM indole pre-treatment, LPS stimulation",50%
same,inhibition of TNF production with concurrent TGF-β treatment,"TNF; DC2.4, indole 24 hours with TGF-β (10 ng/ml), LPS 1 ug/ml 4 hours",marked synergistic effect
same,Foxp3 mean fluorescence intensity of splenic Tregs,Thy1.2+CD4+ T cells,higher mean fluorescence intensity
same,Tregs in the spleen of newly activated T cells compared to RA-DCs or DMF-DCs,Thy1.2+CD4+ T cells,two times more Tregs
same,"T cell expansion, less than controls","Thy1.2+CD4+ T cells; spleen, mesenteric and distal lymph nodes",more than 2 fold
same,T cells expressing CCR9,"CCR9; co-culture with DCs conditioned with indole, 10 nM of RA added",over 50%
same,induction of CCR9 on naïve T cells by conditioned BMDCs alone,CCR9; no exogenous RA in the co-culture,insufficient; also recorded: did not induce CCR9
